These results are taken from US20060265776A1, “Viability” (priority 2003, published 2006).

Entries after “also recorded” stand apart in the source; their conditions may differ.

The subject of series [1] is Arabidopsis thaliana cell suspension cultures. Briefly: Viability staining with fluorescein diacetate and propidium iodide. The note with it: apyrase-treated cultures, 3 days. In kind it is cell-based. As for the experimental part: The inventors decided to use viability staining to confirm cell death in these cell cultures. To achieve this, […] aliquots were removed from the cultures and the cells resuspended in 0.2M CaCl2 after removal of the growth medium. The aliquots were doubly-stained by incubating for 5 minutes with a final concentration of 25 μg/mL fluorescein diacetate [0.5% (w/v) stock solution in acetone] and 50 μg/mL propidium iodide [10 mg/mL stock solution in phosphate-buffered saline pH 7.4]. […] The viable cells had also excluded propidium iodide, which is non-permeative and can only cross membranes of dead or dying cells. Dead cells had taken up propidium iodide, which binds to DNA, resulting in nuclei emitting a very intense red fluorescence.

The test system of another series is bean plants. Briefly: Leaf infiltration, bean. In kind it is in vivo, Phaseolus vulgaris. As to conditions: apyrase, hexokinase; 100 mM glucose. How it is done: (§1) Tobacco (Nicotiana tabacum), Arabidopsis, and bean (Phaseolus vulgaris) plants were sown in soil and raised in a growth cabinet with a 16-hour photoperiod at 20° C. and 8 hours of darkness at 15° C. The relative humidity was maintained at 60% and the photon flux density was 250 μmolm^−2 s^−1. […] Only the cotyledons of bean plants were treated. The abaxial surface of a small zone of leaf tissue was treated by infiltrating the apoplast with the solution using a syringe and hypodermic needle. The three test solutions had the following concentrations of either: 0.5 units/μL apyrase, 1.85 units/μL hexokinase plus 100 mM glucose, or 1-5 mM AMP-PCP (pH 6.5).

For series [2], the system named is Tobacco (Nicotiana tabacum), Arabidopsis, and bean (Phaseolus vulgaris) plants. The series can be described thus: Leaf infiltration of extracellular ATP depletion systems, whole plants. In kind it is in vivo. The note with it: 0.5 units/μL apyrase, 1.85 units/μL hexokinase plus 100 mM glucose, 1-5 mM AMP-PCP (pH 6.5); ATP (pH 6.5). As for the experimental part: as §1
The concentrations used were the same as defined above unless stated otherwise.

A further series relates to tobacco leaves. Briefly: Leaf infiltration, tobacco. Type of series: in vivo, Nicotiana tabacum. As for the experimental part:
as §1

For series [3], the system named is Black Mexican sweet corn cells. Briefly: Cell viability of corn suspension cells. In kind it is cell-based, Zea mays. As to conditions: 1 mM ATP, 1 mM AMP-PCP, 100 units/mL apyrase, 200 units/mL hexokinase; 100 mM glucose in culture.
The subject of series [4] is Arabidopsis thaliana cell suspension cultures. In kind it is cell-based. As for the experimental part: A. thaliana cell cultures were grown as described in example 1. Aliquots of the cell suspension (1.5 mL) were treated with a final concentration of 0, 20, 50, or 100 units/mL of apyrase. […] The dead cells had become buoyant and adhered to the walls of the vials, forming a ring just above the edge of the swirling medium. The ring of cells was sometimes dislodged and fell into the medium, resulting in apyrase-treated cultures having flakes of dead cells at the bottom of the vials.
To quantify the effect of apyrase on cell viability, the ability of the cells to grow and multiply subsequent to treatment was measured after diluting the cultures by over 30 times in fresh medium not containing any additives. This was achieved by transferring the cells treated for 3 days to 50 mL of fresh growth medium and allowing them to grow for a further 4 days. At the end of this period, triplicate 1 mL aliquots were sampled from the cultures and the volume of the cells was measured and expressed as a percentage of the culture volume. The method used to determine the packed cell volume was as follows: 1 mL cell culture aliquots were placed in 1.5 mL microfuge tubes and the cells gently compacted by centrifuging (1000 rpm., 10 minutes) in a swing-out rotor (Grundrotor 11030; Sigma laborzentrifugen GmbH, Oestrode, Germany). The level of the cells was marked on the wall of the tube and the volume of cells determined by measuring the volume of water needed to fill the tube to the marked level. The packed cell volume was expressed as the volume occupied by cells as a percentage of 1000 μL.
In each case the error bars represent the standard deviation.

In the case of apyrase, in series [1], the “dead cells by viability staining” value is listed as “significantly high proportion of cells in the apyrase-treated cell cultures was dead”. For the same substance, the “necrotic lesions on bean leaves” value in the series on bean plants is “development of necrotic lesions on leaves”. The “necrotic lesions after local leaf infiltration” value in series [2] was “development of necrotic lesions in the area where the application was made within 2 days of treatment; also recorded: localised necrotic lesions”. Further, in the series on tobacco leaves (1 mM AMP-PCP, 1 mM ATP, apyrase, hexokinase plus glucose), the “local tissue death after infiltration of tobacco leaves” value is reported as “development of localised necrotic lesions”. Moreover, in the series with tobacco leaves (5 mM AMP-PCP or equivalent amount of ATP, after 4 days), the “state of tobacco plant after treatment of a leaf” value is recorded as “Comparable results”. Moreover, the “viability of corn cells” value in series [3] was “caused significant cell death”. Also, the loss in viability entry in series [4] is “over 80%”. In addition, the “cell death seen in cultures” value in series [4] (20, 50 or 100 units/mL apyrase, incubated for 3 days) is “showed a significant frequency of cell death”. Besides, in series [4] (apyrase 0-100 units/mL, hexokinase 0-200 units/mL with 100 mM glucose, AMP-PCP 0-1.5 mM), the “cell viability with increasing concentration (dose-response), in words” value is “progressive decrease in cell viability”.
